Like-named read-outs stand apart in the source and are kept apart here.
Tests used:
cotton bollworm = assay: Insecticidal test on cotton bollworm; format: in vivo; details: Helicoverpa armigera, 144 h
Description: A wettable powder prepared in accordance with Formulation Example 2 was diluted with water to a concentration of an active ingredient of 500 ppm. Cabbage leaves were dipped in this solution and dried in air and then put in a plastic cup having a capacity of 60 mL. Five hatched larvae of cotton bollworm were released in the cup, and the cup was lidded and placed in a thermostatic chamber at 25° C. for 6 days, and the number of dead larvae were assessed for calculation of the mortality by Equation 2. The test was carried out by two series system.

brown rice planthopper = assay: Insecticidal test on brown rice planthopper; format: in vivo; details: 144 h
Description: A wettable powder prepared in accordance with Formulation Example 2 was diluted with water to a concentration of an active ingredient of 500 ppm. Rice sprouts were dipped in this solution and put in a plastic cup having a capacity of 60 mL. Ten third-instar larvae of brown rice planthopper were released in the cup, the cup was lidded and placed in a thermostatic chamber at 25° C. for 6 days, and the number of dead larvae were counted for calculation of the mortality by Equation 2. The test was carried out by one series system.

diamondback moth = assay: Insecticidal test on diamondback moth; format: in vivo; details: Plutella xylostella, 144 h
Description: A wettable powder prepared in accordance with Formulation Example 2 was diluted with water to a concentration of an active ingredient of 500 ppm. Cabbage leaves were dipped in this solution and dried in air and then put in a plastic cup having a capacity of 60 mL. 10 second-instar larvae of diamondback moth were released in the cup and the cup was lidded. Then, the cup was placed in a thermostatic chamber at 25° C. for 6 days, and dead moths were counted for calculation of the mortality by Equation 2. The test was carried out by one series system.

cotton aphid = assay: Insecticidal test on cotton aphid (seedling dip); format: in vivo; details: Aphis gossypii, 72 h
Description: A wettable powder prepared in accordance with Formulation Example 2 was diluted with water to a concentration of an active ingredient of 500 ppm. Cucumber seedlings which had been inoculated with larvae of cotton aphid were dipped in this solution and dried in air. The treated cucumber seedlings were placed in a thermostatic chamber at 25° C. for 3 days, and the live insects were counted for calculation of the mortality by Equation 2. The test was carried out by one series system.

two-spotted spider mites = assay: Miticidal test on two-spotted spider mites (seedling dip); format: in vivo, Tetranvchus urticae; details: Glycine max, 312 h, read-out: protective value
Description: A wettable powder prepared in accordance with Formulation Example 2 was diluted with water to a concentration of an active ingredient of 500 ppm. Soybean seedlings which had been inoculated with imago two-spotted spider mites were dipped in the solution and dried in air. The treated soybean seedlings were placed in a thermostatic chamber at 25° C. for 13 days, and the number of live mites were assessed for calculation of the protective value by Equation 1. The test was carried out by one series system.

[1] = 500 ppm active ingredient, cabbage leaves dipped, hatched larvae, 25° C., 6 days, read-out: mortality
[2] = 500 ppm active ingredient, cabbage leaves dipped, second-instar larvae, 25° C., 6 days, read-out: mortality
[3] = 500 ppm active ingredient, cucumber seedlings with larvae of cotton aphid dipped, 25° C., 3 days, read-out: mortality
[4] = 500 ppm active ingredient, soybean seedlings with imago mites dipped, 25° C., 13 days

C#CCNc1cc(OC(F)(F)C(F)OC(F)(F)C(F)(F)C(F)(F)F)nn1-c1cc(SCC(F)(F)F)c(C)cc1F (stereo not shown) [1-357, 1-{2-fluoro-4-methyl-5-(2,2,2-trifluoroethylthio)phenyl}-5-(2-propynylamino)-3-{1,1,2-trifluoro-2-(heptafluoropropoxy)ethoxy}pyrazole]
≥ 90%: mortality at 500 ppm (cotton bollworm; [1]) | mortality at 500 ppm (brown rice planthopper) | mortality at 500 ppm (diamondback moth; [2]) | mortality at 500 ppm (cotton aphid; [3]) | pest or weed control at 500 ppm (two-spotted spider mites)

Cc1cc(F)c(-n2nc(OCC(F)(F)C(F)(F)C(F)(F)F)cc2NC=O)cc1[S+]([O-])CC(F)(F)F (stereo not shown) [1-1594, 1-{2-fluoro-4-methyl-5-(2,2,2-trifluoroethylsulfinyl)phenyl}-5-formylamino-3-(2,2,3,3,4,4,4-heptafluorobutoxy)pyrazole]
≥ 90%: mortality at 500 ppm (cotton bollworm; [1]) | mortality at 500 ppm (diamondback moth; [2]) | mortality at 500 ppm (cotton aphid; [3])

CC(=O)Nc1cc(OC(F)(F)C(F)OC(F)(F)F)nn1-c1cc([S+]([O-])CC(F)(F)F)c(C)cc1F (stereo not shown) [1-16, 5-acetylamino-1-{2-fluoro-4-methyl-5-(2,2,2-trifluoroethylsulfinyl)phenyl}-3-{1,1,2-trifluoro-2-(trifluoromethoxy)ethoxy}pyrazole]
≥ 90%: mortality at 500 ppm (cotton bollworm; in Brassica oleracea) | mortality at 500 ppm (diamondback moth; in Brassica oleracea) | mortality at 500 ppm (cotton aphid; in Cucumis sativus) | pest or weed control at 500 ppm (two-spotted spider mites; [4])

CNc1cc(OC(F)(F)C(F)C(F)(F)F)nn1-c1cc([S+]([O-])CC(F)(F)F)c(C)cc1F (stereo not shown) [1-187, 1-{2-fluoro-4-methyl-5-(2,2,2-trifluoroethylsulfinyl)phenyl}-3-(1,1,2,3,3,3-hexafluoropropoxy)-5-methylaminopyrazole]
≥ 90%: mortality at 500 ppm (cotton bollworm; [1]) | mortality at 500 ppm (brown rice planthopper) | mortality at 500 ppm (diamondback moth; [2]) | mortality at 500 ppm (cotton aphid; [3])

CC(=O)Nc1cc(OCC(F)(F)C(F)(F)C(F)(F)C(F)(F)F)nn1-c1cc([S+]([O-])CC(F)(F)F)c(C)cc1F (stereo not shown) [1-78, 5-acetylamino-1-{2-fluoro-4-methyl-5-(2,2,2-trifluoroethylsulfinyl)phenyl}-3-(2,2,3,3,4,4,5,5,5-nonafluoropentyloxy)pyrazole]
≥ 90%: mortality at 500 ppm (cotton bollworm; [1]) | mortality at 500 ppm (brown rice planthopper) | mortality at 500 ppm (diamondback moth; [2]) | pest or weed control at 500 ppm (two-spotted spider mites)

CC(=O)Nc1cc(OC(F)(F)C(F)F)nn1-c1cc([S+]([O-])CC(F)(F)F)c(C)cc1F (stereo not shown) [1-1368, 5-acetylamino-1-{2-fluoro-4-methyl-5-(2,2,2-trifluoroethylsulfinyl)phenyl}-3-(1,1,2,2-tetrafluoroethoxy)pyrazole]
≥ 90%: mortality at 500 ppm (cotton bollworm; in Brassica oleracea) | mortality at 500 ppm (brown rice planthopper) | mortality at 500 ppm (diamondback moth; in Brassica oleracea) | mortality at 500 ppm (cotton aphid; in Cucumis sativus) | pest or weed control at 500 ppm (two-spotted spider mites; [4])

COc1cc(OC(F)(F)C(F)OC(F)(F)F)nn1-c1cc([S+]([O-])CC(F)(F)F)c(C)cc1F (stereo not shown) [1-795, 1-{2-fluoro-4-methyl-5-(2,2,2-trifluoroethylsulfinyl)phenyl}-5-methoxy-3-{1,1,2-trifluoro-2-(trifluoromethoxy)ethoxy}pyrazole]
≥ 90%: mortality at 500 ppm (cotton bollworm; in Brassica oleracea) | mortality at 500 ppm (brown rice planthopper) | mortality at 500 ppm (diamondback moth; in Brassica oleracea) | mortality at 500 ppm (cotton aphid; in Cucumis sativus) | pest or weed control at 500 ppm (two-spotted spider mites; [4])

CC(=O)Nc1cc(OCC(F)(F)C(F)(F)C(F)(F)C(F)(F)F)nn1-c1cc(SCC(F)(F)F)c(C)cc1F [1-77, 5-acetylamino-1-{2-fluoro-4-methyl-5-(2,2,2-trifluoroethylthio)phenyl}-3-(2,2,3,3,4,4,5,5,5-nonafluoropentyloxy)pyrazole]
≥ 90%: mortality at 500 ppm (cotton bollworm; [1]) | mortality at 500 ppm (brown rice planthopper) | mortality at 500 ppm (diamondback moth; [2]) | pest or weed control at 500 ppm (two-spotted spider mites)

Cc1cc(F)c(-n2nc(OC(F)(F)C(F)C(F)(F)F)cc2N)cc1SCC(F)(F)F (stereo not shown) [1-9, 5-amino-1-{2-fluoro-4-methyl-5-(2,2,2-trifluoroethylthio)phenyl}-3-(1,1,2,3,3,3-hexafluoropropoxy)pyrazole]
≥ 90%: mortality at 500 ppm (cotton bollworm; in Brassica oleracea) | mortality at 500 ppm (brown rice planthopper) | mortality at 500 ppm (diamondback moth; in Brassica oleracea) | mortality at 500 ppm (cotton aphid; in Cucumis sativus) | pest or weed control at 500 ppm (two-spotted spider mites; [4])

C#CCNc1cc(OCC(F)(F)C(F)(F)F)nn1-c1cc(SCC(F)(F)F)c(C)cc1F [1-161, 1-{2-fluoro-4-methyl-5-(2,2,2-trifluoroethylthio)phenyl}-3-(2,2,3,3,3-pentafluoropropoxy)-5-(2-propynylamino)pyrazole]
≥ 90%: mortality at 500 ppm (cotton bollworm; in Brassica oleracea) | mortality at 500 ppm (brown rice planthopper) | mortality at 500 ppm (diamondback moth; in Brassica oleracea) | mortality at 500 ppm (cotton aphid; in Cucumis sativus) | pest or weed control at 500 ppm (two-spotted spider mites; [4])

CC(=O)Nc1cc(OCC(F)(F)C(F)(F)F)nn1-c1cc(SCC(F)(F)F)c(C)cc1F [1-17, 5-acetylamino-1-{2-fluoro-4-methyl-5-(2,2,2-trifluoroethylthio)phenyl}-3-(2,2,3,3,3-pentafluoropropoxy)pyrazole]
≥ 90%: mortality at 500 ppm (cotton bollworm; in Brassica oleracea) | mortality at 500 ppm (brown rice planthopper) | mortality at 500 ppm (diamondback moth; in Brassica oleracea) | mortality at 500 ppm (cotton aphid; in Cucumis sativus) | pest or weed control at 500 ppm (two-spotted spider mites; [4])

CNc1cc(OC(F)(F)C(F)(F)C(F)(F)C(F)(F)C(F)(F)F)nn1-c1cc([S+]([O-])CC(F)(F)F)c(C)cc1F (stereo not shown) [1-525, 1-{2-fluoro-4-methyl-5-(2,2,2-trifluoroethylsulfinyl)phenyl}-5-methylamino-3-(1,1,2,2,3,3,4,4,5,5,5-undecafluoropentyloxy)pyrazole]
≥ 90%: mortality at 500 ppm (cotton bollworm; [1]) | mortality at 500 ppm (brown rice planthopper) | mortality at 500 ppm (diamondback moth; [2]) | pest or weed control at 500 ppm (two-spotted spider mites)

CNc1cc(OC(F)(F)C(F)OC(F)(F)C(F)(F)C(F)(F)F)nn1-c1cc(SCC(F)(F)F)c(C)cc1F (stereo not shown) [1-347, 1-{2-fluoro-4-methyl-5-(2,2,2-trifluoroethylthio)phenyl}-5-methylamino-3-{1,1,2-trifluoro-2-(heptafluoropropoxy)ethoxy}pyrazole]
≥ 90%: mortality at 500 ppm (cotton bollworm; [1]) | mortality at 500 ppm (brown rice planthopper) | mortality at 500 ppm (diamondback moth; [2]) | mortality at 500 ppm (cotton aphid; [3]) | pest or weed control at 500 ppm (two-spotted spider mites)

CNc1cc(OC(F)(F)C(F)(F)C(F)(F)C(F)(F)C(F)(F)F)nn1-c1cc(SCC(F)(F)F)c(C)cc1F [1-524, 1-{2-fluoro-4-methyl-5-(2,2,2-trifluoroethylthio)phenyl}-5-methylamino-3-(1,1,2,2,3,3,4,4,5,5,5-undecafluoropentyloxy)pyrazole]
≥ 90%: mortality at 500 ppm (cotton bollworm; [1]) | mortality at 500 ppm (brown rice planthopper) | mortality at 500 ppm (diamondback moth; [2]) | pest or weed control at 500 ppm (two-spotted spider mites)

CC(=O)Nc1cc(OCC(F)(F)C(F)(F)F)nn1-c1cc([S+]([O-])CC(F)(F)Cl)c(C)cc1F (stereo not shown) [1-178, 5-acetylamino-1-{2-fluoro-4-methyl-5-(2-chloro-2,2-difluoroethylsulfinyl)phenyl}-3-(2,2,3,3,3-pentafluoropropoxy)pyrazole]
≥ 90%: mortality at 500 ppm (cotton bollworm; [1]) | mortality at 500 ppm (brown rice planthopper) | mortality at 500 ppm (diamondback moth; [2])

Cc1cc(F)c(-n2nc(OCC(F)(F)C(F)(F)C(F)(F)F)cc2NC=O)cc1SCC(F)(F)F [1-1593, 1-{2-fluoro-4-methyl-5-(2,2,2-trifluoroethylthio)phenyl}-5-formylamino-3-(2,2,3,3,4,4,4-heptafluorobutoxy)pyrazole]
≥ 90%: mortality at 500 ppm (cotton bollworm; [1]) | mortality at 500 ppm (brown rice planthopper) | mortality at 500 ppm (diamondback moth; [2]) | mortality at 500 ppm (cotton aphid; [3]) | pest or weed control at 500 ppm (two-spotted spider mites)

From patent publication US8802713B2, “3-alkoxy-1-phenylpyrazole derivatives and pesticides” (Kumiai Chemical Industry Co., Ltd., priority 2007, dated 2014)
